In publication PMC2330087, “Mechanistic Insights into a Novel Exporter-Importer System of Mycobacterium tuberculosis Unravel Its Role in Trafficking of Iron” (PLoS ONE, 2008):

Biological target: T1, rIrtA (Rv1348) in LP-48 liposomes (Mycobacterium tuberculosis, UniProt P9WQJ9)
T1 construct: gene irtA
T1 sequence (P9WQJ9 whole entry): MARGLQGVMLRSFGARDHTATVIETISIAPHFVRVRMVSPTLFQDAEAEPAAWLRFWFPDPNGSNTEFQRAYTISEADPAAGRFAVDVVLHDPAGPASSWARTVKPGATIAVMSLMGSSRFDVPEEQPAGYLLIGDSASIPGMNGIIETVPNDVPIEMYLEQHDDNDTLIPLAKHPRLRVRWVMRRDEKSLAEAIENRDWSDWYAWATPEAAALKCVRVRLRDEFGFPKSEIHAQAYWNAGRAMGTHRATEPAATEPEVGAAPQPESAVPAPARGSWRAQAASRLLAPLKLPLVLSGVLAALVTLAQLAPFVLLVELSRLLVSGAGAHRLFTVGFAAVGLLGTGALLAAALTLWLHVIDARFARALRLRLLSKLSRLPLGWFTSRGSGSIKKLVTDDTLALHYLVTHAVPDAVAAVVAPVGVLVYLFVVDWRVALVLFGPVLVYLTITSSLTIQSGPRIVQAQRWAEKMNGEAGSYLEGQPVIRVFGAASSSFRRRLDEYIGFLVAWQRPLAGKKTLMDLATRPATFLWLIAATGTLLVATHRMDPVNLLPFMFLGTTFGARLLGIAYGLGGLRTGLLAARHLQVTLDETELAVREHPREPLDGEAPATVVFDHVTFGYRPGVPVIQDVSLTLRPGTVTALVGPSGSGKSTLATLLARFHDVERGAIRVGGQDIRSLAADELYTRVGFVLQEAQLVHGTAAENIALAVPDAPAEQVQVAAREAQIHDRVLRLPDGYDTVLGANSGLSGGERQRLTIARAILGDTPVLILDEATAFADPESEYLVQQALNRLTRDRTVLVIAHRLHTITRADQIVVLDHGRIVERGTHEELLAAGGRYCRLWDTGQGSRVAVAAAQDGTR

Nc1ncnc2c1ncn2[C@@H]1O[C@H](COP(=O)(O)OP(=O)(O)OP(=O)(O)O)[C@@H](O)[C@H]1O [ATP]
inorganic phosphate release in proteoliposomes: the ATP hydrolysis by rIrtA was not seen in the absence of cMyco
